Test system: Caco-2 human epithelial colorectal adenocarcinoma cells
Experiment: In vitro Caco-2 cell model, transport of (−)-epicatechin
Type: in vitro ADME
Settings: for concentration of (−)-epicatechin in the basal compartment in comparison to sucrose: 250 μM (−)-epicatechin plus carbohydrate 100 mg/ml on the apical side, 2 h incubation; for concentration of (−)-epicatechin in the basal compartment when in combination with carbohydrate: (−)-epicatechin in combination with selected low glycemic index carbohydrates
Description: Caco-2 human epithelial colorectal adenocarcinoma cells were used to investigate the transport of (−)-epicatechin in vitro. Cells were grown in high glucose DMEM supplemented with 20% heat inactivated fetal bovine serum, non-essential amino acids and 2 mM L-glutamine, amphotericin B (1 μg/ml), penicillin (100 U/ml), and streptomycin (100 μg/ml) and maintained at 37° C. and 5% CO2. The medium was replaced every 2 days and the cells were reseeded every 7 days. Then, cells were seeded in 12-well transwell inserts at a density of 20,000 cells per cm^2 and the medium on both sides was replaced every 2 days. After 21 days, cells were already differentiated. On the experiment day, medium was removed and replaced by HBSS supplemented with 25 mM glucose, 10 mM HEPES and 1.8 mM CaCl2. […] Then, (−)-epicatechin (250 μM) alone or plus carbohydrates (5 to 100 mg/ml) were placed in the apical side of the cell monolayers and incubated for 2 h. All compounds were added to the exposure medium from stock solutions in DMSO. The concentration of DMSO at the apical side was kept at 0.05% in each experiment. (−)-Epicatechin was detected in the cell culture media using ultra-performance liquid chromatography using an Acquity UPLC HSS C18 2.1×100 mm, 1.8 μm column (Waters, Switzerland) equipped with HSS C18 VanGuard pre-column (Waters, Switzerland).

Structure (SMILES)	concentration of (−)-epicatechin in the basal compartment in comparison to sucrose	concentration of (−)-epicatechin in the basal compartment when in combination with carbohydrate
OC[C@@H](O)[C@@H](O)[C@H](O)[C@@H](O)CO [sorbitol, D-sorbitol]	significant higher concentration of (−)-epicatechin in the basal compartment	significant increase in the concentration of (−)-epicatechin in the basal compartment
OC[C@@H](O)[C@H](O)[C@@H](O)CO [xylitol]	significant higher concentration of (−)-epicatechin in the basal compartment	significant increase in the concentration of (−)-epicatechin in the basal compartment
O=C[C@H](O)[C@@H](O)[C@@H](O)[C@H](O)CO [galactose]	significant higher concentration of (−)-epicatechin in the basal compartment	significant increase in the concentration of (−)-epicatechin in the basal compartment
